Laboratory results published in patent publication US8314071B2, “Bioactive molecules from co-cultivation of microbes” (Massachusetts Institute of Technology, priority 2007, dated 2012).

Assays:
Escherichia coli = assay: paper disk diffusion, Escherichia coli; format: cell-based; settings: paper disk (6 mm in diameter) containing 30 μg on agar plate
Procedure: (§1) No evidence of activity against eukaryotes, such as S. cerevisiae or cytotoxicity against human leukemia (HL-60) was observed.
(§2) Antimicrobial activity was measured by the conventional paper disk diffusion method. See Bauer, A. W.; Kirby, W. M.; Sherris, J. C.; Turck, M. Am. J. Clin. Pathol. 1966, 45, 493-96; and Hachem, C. Y.; Clarridge, J. E.; Reddy, R.; Flamm, R.; Evans, D. G.; Tanaka, S. K.; Graham, D. Y. Diagn. Microbiol. Infect. Dis. 1996, 24, 37-41. The bioactive fractions during the purification procedures were confirmed by activity against Streptomyces padanus, while pure rhodostreptomycins were tested for activity against S. padanus, Escherichia coli, Staphylococcus aureus, Bacillus subtilis, Helicobacter pylori and Saccharomyces cerevisiae. In this method, each paper disk (Whatman AA Discs, 6 mm) containing the extract or 30 μg of the pure compounds was placed directly onto an agar plate that had been freshly inoculated with a lawn of the test organism. The activity was estimated by measuring the diameters of the inhibition zones.

Saccharomyces cerevisiae = assay: paper disk diffusion, Saccharomyces cerevisiae; format: cell-based; settings: paper disk (6 mm in diameter) containing 30 μg on agar plate
Procedure: as §1, §2

[1] = tested on: Gram-negative and Gram-positive bacteria; assay: conventional disk assays on microbial lawns, overall; format: cell-based; settings: rhodostreptomycin B (2) compared with rhodostreptomycin A (1)
Procedure: as §1, §2

Bacillus subtilis = assay: paper disk diffusion, Bacillus subtilis; format: cell-based; settings: paper disk (6 mm in diameter) containing 30 μg on agar plate
Procedure: as §1, §2

solubility in solvents = format: physicochemical
Streptomyces padanus = assay: paper disk diffusion, Streptomyces padanus; format: cell-based; settings: paper disk (6 mm in diameter) containing 30 μg on agar plate
Procedure: as §1, §2

Staphylococcus aureus = assay: paper disk diffusion, Staphylococcus aureus; format: cell-based; settings: paper disk (6 mm in diameter) containing 30 μg on agar plate
Procedure: as §1, §2

Helicobacter pylori = assay: paper disk diffusion, Helicobacter pylori; format: cell-based; settings: paper disk (6 mm in diameter) containing 30 μg on agar plate
Procedure: as §1, §2

| solubility in chloroform or n-hexane (solubility in solvents) | solubility in water (solubility in solvents) | Structure (SMILES) | diameter of inhibition zone (Escherichia coli) | diameter of inhibition zone (Saccharomyces cerevisiae) | activity relative to the other isomer [1] | diameter of inhibition zone (Bacillus subtilis) | diameter of inhibition zone (Streptomyces padanus) | diameter of inhibition zone (Staphylococcus aureus) | diameter of inhibition zone (Helicobacter pylori) |
| --- | --- | --- | --- | --- | --- | --- | --- | --- | --- |
| not in chloroform or n-hexane | highly soluble in water | CN[C@@H]1[C@H](O[C@H]2[C@H](O[C@H]3[C@H](O)[C@@H](O)[C@H](N=C(N)N)[C@@H](O)[C@@H]3N=C(N)N)O[C@H](C)[C@@]23OC(=O)N[C@@H]3O)O[C@@H](CO)[C@H](O)[C@H]1O [Rhodostreptomycin 2, Rhodostreptomycin B] | 12 mm | 0 mm | more potent | 14 mm | 18 mm | 14 mm | 18 mm |
| not in chloroform or n-hexane | highly soluble in water | CN[C@@H]1[C@H](O[C@H]2[C@H](O[C@H]3[C@H](O)[C@@H](O)[C@H](N=C(N)N)[C@@H](O)[C@@H]3N=C(N)N)O[C@H](C)[C@@]23OC(=O)N[C@H]3O)O[C@@H](CO)[C@H](O)[C@H]1O [Rhodostreptomycin 1, Rhodostreptomycin A] | 8 mm | 0 mm | – | 8 mm | 15 mm | 9 mm | 10 mm |
